Data reported in the supplement of paper PMC10307832.

Tests used:
Assay in all cases: relative viability (nuclei count vs DMSO), 5 days (fraction); higher = more cells survive
[1] = system: NCI-H1734
How it was run: (§1)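 Lung cancer cell lines were seeded in 1536-well plates and dosed by pin tool the next day, with either a single drug or a fixed anchor-drug dose combined with five library-drug doses (not always all listed) spaced in √10 steps. Five days later, one step fixed the cells and stained their nuclei (final 0.05% Triton X-100, 1% formaldehyde, 1 ug/ml Hoechst), and nuclei were counted on 4× images. Relative viability is the nuclei count in treated wells divided by the count in vehicle wells, and each value is the median of duplicate plates.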

[2] = system: SW 900
How it was run: as §1

[3] = system: LK-2
How it was run: as §1

[4] = system: HARA
How it was run: as §1

[5] = system: EPLC-272H
How it was run: as §1

[6] = system: NCI-H596
How it was run: as §1

[7] = system: NCI-H460
How it was run: as §1

[8] = system: NCI-H1755
How it was run: as §1

[9] = system: LU99A
How it was run: as §1

[10] = system: A-427
How it was run: as §1

[11] = system: EMC-BAC-2
How it was run: as §1

[12] = system: NCI-H522
How it was run: as §1

[13] = system: NCI-H358
How it was run: as §1

[14] = system: NCI-H1993
How it was run: as §1

[15] = system: NCI-H1650
How it was run: as §1

[16] = system: NCI-H2405
How it was run: as §1

[17] = system: COR-L 105
How it was run: as §1

[18] = system: RERF-LC-KJ
How it was run: as §1

[19] = system: NCI-H647
How it was run: as §1

[20] = system: EKVX
How it was run: as §1

[21] = system: ChaGo-K-1
How it was run: as §1

[22] = system: HCC-44
How it was run: as §1

Compound `CCNC(=O)c1noc(-c2cc(C(C)C)c(O)cc2O)c1-c1ccc(CN2CCOCC2)cc1` [Luminespib] + O=C(CCCCCCC(=O)Nc1ccccc1)NO [Vorinostat] (partner 1 µM) has a relative viability ([1]; first compound 0.002 µM) of 0.719, a relative viability ([1]; first compound 0.006325 µM) of 0.719 and a relative viability ([1]; first compound 0.02 µM) of 0.436. It also gave a relative viability ([1]; first compound 0.06325 µM) of 0.132, a relative viability ([1]; first compound 0.2 µM) of 0.123 and a relative viability ([2]; first compound 0.002 µM) of 0.455. It also gave a relative viability ([2]; first compound 0.006325 µM) of 0.489, a relative viability ([2]; first compound 0.02 µM) of 0.266 and a relative viability ([2]; first compound 0.06325 µM) of 0.124. For the same compound, the relative viability ([2]; first compound 0.2 µM) was 0.0992, the relative viability ([3]; first compound 0.002 µM) was 0.305 and the relative viability ([3]; first compound 0.006325 µM) was 0.374. The relative viability ([3]; first compound 0.02 µM) was 0.201, the relative viability ([3]; first compound 0.06325 µM) was 0.146 and the relative viability ([3]; first compound 0.2 µM) was 0.163. For the same compound, the relative viability ([4]; first compound 0.002 µM) was 0.51, the relative viability ([4]; first compound 0.006325 µM) was 0.504 and the relative viability ([4]; first compound 0.02 µM) was 0.591. The relative viability ([4]; first compound 0.06325 µM) was 0.589, the relative viability ([4]; first compound 0.2 µM) was 0.132 and the relative viability ([5]; first compound 0.002 µM) was 0.402. For the same compound, the relative viability ([5]; first compound 0.006325 µM) was 0.381, the relative viability ([5]; first compound 0.02 µM) was 0.505 and the relative viability ([5]; first compound 0.06325 µM) was 0.0961. The relative viability ([5]; first compound 0.2 µM) was 0.171, the relative viability ([6]; first compound 0.002 µM) was 0.61 and the relative viability ([6]; first compound 0.006325 µM) was 0.553. It also gave a relative viability ([6]; first compound 0.02 µM) of 0.434, a relative viability ([6]; first compound 0.06325 µM) of 0.634 and a relative viability ([6]; first compound 0.2 µM) of 0.574. The relative viability ([7]; first compound 0.002 µM) was 0.775, the relative viability ([7]; first compound 0.006325 µM) was 0.68 and the relative viability ([7]; first compound 0.02 µM) was 0.237. The relative viability ([7]; first compound 0.06325 µM) was 0.0162, the relative viability ([7]; first compound 0.2 µM) was 0.0131 and the relative viability ([8]; first compound 0.002 µM) was 0.751. The relative viability ([8]; first compound 0.006325 µM) was 0.774, the relative viability ([8]; first compound 0.02 µM) was 0.835 and the relative viability ([8]; first compound 0.06325 µM) was 0.57. It also gave a relative viability ([8]; first compound 0.2 µM) of 0.319, a relative viability ([9]; first compound 0.002 µM) of 0.58 and a relative viability ([9]; first compound 0.006325 µM) of 0.45. For the same compound, the relative viability ([9]; first compound 0.02 µM) was 0.263, the relative viability ([9]; first compound 0.06325 µM) was 0.201 and the relative viability ([9]; first compound 0.2 µM) was 0.103. It also gave a relative viability ([10]; first compound 0.002 µM) of 0.855, a relative viability ([10]; first compound 0.006325 µM) of 0.319 and a relative viability ([10]; first compound 0.02 µM) of 0.807. The relative viability ([10]; first compound 0.06325 µM) was 0.327, the relative viability ([10]; first compound 0.2 µM) was 0.247 and the relative viability ([11]; first compound 0.002 µM) was 0.461. The relative viability ([11]; first compound 0.02 µM) was 0.263, the relative viability ([11]; first compound 0.06325 µM) was 0.148 and the relative viability ([11]; first compound 0.2 µM) was 0.178. The relative viability ([12]; first compound 0.002 µM) was 0.81, the relative viability ([12]; first compound 0.006325 µM) was 0.904 and the relative viability ([12]; first compound 0.02 µM) was 0.772. The relative viability ([12]; first compound 0.06325 µM) was 0.607, the relative viability ([12]; first compound 0.2 µM) was 0.354 and the relative viability ([13]; first compound 0.002 µM) was 0.662. For the same compound, the relative viability ([13]; first compound 0.006325 µM) was 0.66, the relative viability ([13]; first compound 0.02 µM) was 0.669 and the relative viability ([13]; first compound 0.06325 µM) was 0.0646. The relative viability ([13]; first compound 0.2 µM) was 0.0598, the relative viability ([14]; first compound 0.002 µM) was 0.893 and the relative viability ([14]; first compound 0.006325 µM) was 0.793. For the same compound, the relative viability ([14]; first compound 0.02 µM) was 0.552, the relative viability ([14]; first compound 0.06325 µM) was 0.246 and the relative viability ([14]; first compound 0.2 µM) was 0.238. It also gave a relative viability ([15]; first compound 0.002 µM) of 0.478, a relative viability ([15]; first compound 0.006325 µM) of 0.516 and a relative viability ([15]; first compound 0.02 µM) of 0.388. It also gave a relative viability ([15]; first compound 0.06325 µM) of 0.139, a relative viability ([15]; first compound 0.2 µM) of 0.135 and a relative viability ([16]; first compound 0.002 µM) of 1.11. For the same compound, the relative viability ([16]; first compound 0.02 µM) was 0.884, the relative viability ([16]; first compound 0.06325 µM) was 0.194 and the relative viability ([16]; first compound 0.2 µM) was 0.165. It also gave a relative viability ([17]; first compound 0.002 µM) of 0.917, a relative viability ([17]; first compound 0.006325 µM) of 0.84 and a relative viability ([17]; first compound 0.02 µM) of 0.959. It also gave a relative viability ([17]; first compound 0.06325 µM) of 0.43, a relative viability ([17]; first compound 0.2 µM) of 0.278 and a relative viability ([18]; first compound 0.002 µM) of 0.624. It also gave a relative viability ([18]; first compound 0.006325 µM) of 0.707, a relative viability ([18]; first compound 0.02 µM) of 0.473 and a relative viability ([18]; first compound 0.06325 µM) of 0.467. The relative viability ([18]; first compound 0.2 µM) was 0.216, the relative viability ([19]; first compound 0.002 µM) was 0.584 and the relative viability ([19]; first compound 0.006325 µM) was 0.381. It also gave a relative viability ([19]; first compound 0.02 µM) of 0.646, a relative viability ([19]; first compound 0.06325 µM) of 0.11 and a relative viability ([19]; first compound 0.2 µM) of 0.0869. The relative viability ([20]; first compound 0.002 µM) was 0.466, the relative viability ([20]; first compound 0.006325 µM) was 0.684 and the relative viability ([20]; first compound 0.02 µM) was 0.47. It also gave a relative viability ([20]; first compound 0.06325 µM) of 0.669, a relative viability ([20]; first compound 0.2 µM) of 0.572 and a relative viability ([21]; first compound 0.002 µM) of 0.678. For the same compound, the relative viability ([21]; first compound 0.006325 µM) was 0.728, the relative viability ([21]; first compound 0.02 µM) was 0.529 and the relative viability ([21]; first compound 0.06325 µM) was 0.523. For the same compound, the relative viability ([21]; first compound 0.2 µM) was 0.23, the relative viability ([22]; first compound 0.002 µM) was 1.1 and the relative viability ([22]; first compound 0.006325 µM) was 1.13. The relative viability ([22]; first compound 0.02 µM) was 1.19, the relative viability ([22]; first compound 0.06325 µM) was 1.11 and the relative viability ([22]; first compound 0.2 µM) was 0.924.
